Assay results published in US8642508B2, “Complex for use in stabilizing herbicidal compositions and methods for synthesizing and using” (Bayer Cropscience LP, priority 2005, dated 2014).

Key:
[1] = Long-term storage stability 1 year room temperature, Example 7 emulsifiable concentrate (triethanolamine + DBSCa); assay type: physicochemical; conditions: Example 7 formulation; 1 year @ room temp
Procedure: In this example, an emulsifiable concentrate of fenoxaprop p-ethyl, mefenpyr diethyl, pyrasulfotole and bromoxynil mixed esters was prepared. Triethanolamine, a buffer that is capable of hydrogen bonding, was selected as the buffer. Dodecylbenzenesulfontate calcium, also known as DBSCa was also used to provide a calcium cation for the complex. The mixture of Table 13 was prepared by mixing the liquid ingredients, then the solid ingredients at 50° C.
The mixture was tested for long-term storage stability by subjecting separate samples to room temperatures for 1 year.

[2] = Long-term storage stability, Comparative Example 5 emulsifiable concentrate with bromoxynil mixed esters (triethylamine buffer); assay type: physicochemical; conditions: Comparative Example 5 formulation
Procedure: An emulsifiable concentrate of fenoxaprop p-ethyl, mefenpyr diethyl, pyrasulfotole and bromoxynil mixed esters was prepared. Triethylamine, a buffer that is not capable of complexing was selected as the buffer. The mixture of Table 9 was prepared by mixing the liquid ingredients, then the solid ingredients at 50° C.
The mixture was tested for long-term storage stability by subjecting separate samples to different temperatures for eight weeks.

| Structure (SMILES) | Avg. Wt % active ingredient [1] [Wt %] | Change from expected [1] [%] | Avg. Wt % active ingredient ([2]; 8 weeks @ 0° C.) [Wt %] | Avg. Wt % active ingredient ([2]; 8 weeks @ 40° C.) [Wt %] | change from 0° C. ([2]; 8 weeks @ 40° C.) [%] | Avg. Wt % active ingredient ([2]; 8 weeks @ room temp.) [Wt %] | change from 0° C. ([2]; 8 weeks @ room temp.) [%] |
| --- | --- | --- | --- | --- | --- | --- | --- |
| CCCCCCC(=O)Oc1c(Br)cc(C#N)cc1Br [Bromoxynil Heptanoate Esters, bromoxynil heptanoate] | 12.47 | −3.03 |  |  |  |  |  |
| CCCCCCCC(=O)Oc1c(Br)cc(C#N)cc1Br [Bromoxynil Octanoate, bromoxynil octanoate] | 13.08 | −3.083 | 5.67 | 5.02 | −11.52 | 5.65 | −0.41 |
